Measurements from PubChem BioAssay AID1549 (Sanford-Burnham Center for Chemical Genomics, 2009).
Calls of active or inactive are those of the source. The rule behind the calls is not given here.

The compounds below were run against Influenza A virus M2 proton channel (A/TW/4845/1999 H1N1) (assay: M2 proton channel binding, NMR based, influenza A virus H1N1 strain (AID 1549)). Settings: NMR binding screen, M2 protein.
With Nc1ccc2c(c1)OCO2 the Kd was > 4 mM (inactive).
For Cc1cc(=O)oc2cc(O)c(O)cc12, the Kd was > 4 mM (inactive).
With Cc1c(C(=O)NC2=NCCS2)oc2ccccc12 the Kd was > 4 mM (inactive).
For CC(C)(C)CC(=O)NC1=NCCS1, the Kd was > 4 mM (inactive).
Clc1ccccc1OCc1nc(-c2ccncc2)no1 was tested, and the Kd was > 4 mM (inactive).
For CC(=O)NC12CC3CC(CC(O)(C3)C1)C2, the Kd was > 4 mM (inactive).
With CC(=O)N1CC2(C)CN(C(C)=O)CC(C)(C1)C2O (stereo not given) the Kd was > 4 mM (inactive).
For O=C(Nc1ccncc1)c1c(F)cccc1F, the Kd was > 4 mM (inactive).
CCCc1cc2c(c(NC(C)=O)n1)c(=O)oc1ccccc12 was tested, and the Kd was > 4 mM (inactive).
For NCc1ccc2c(c1)OCCO2, the Kd was > 4 mM (inactive).
COc1cc2c3cc1Oc1cc(ccc1O)C[C@@H]1c4c(cc(OC)c(O)c4Oc4ccc(cc4)C[C@@H]3N(C)CC2)CC[N+]1(C)C was tested, and the Kd was > 4 mM (inactive).
In the case of CN=C(C)c1c(O)n(C)c(=O)n(C)c1=O, the Kd is reported as > 4 mM (inactive).
For Cc1cc(C(=O)NCc2cccs2)cs1, the Kd was > 4 mM (inactive).
For O=c1oc2ccccc2cc1O, the Kd was > 4 mM (inactive).
In the case of NC(=O)CS(=O)(=O)c1ccc2ccccc2c1, the Kd is reported as > 4 mM (inactive).
For O=c1oc(-c2ccccc2)nc2c1cnn2-c1ccccc1, the Kd was > 4 mM (inactive).
For CC[C@@]1(O)C[C@H](O[C@H]2C[C@H](N(C)C)[C@H](O)[C@H](C)O2)c2c(cc3c(c2O)C(=O)c2c(O)cccc2C3=O)[C@H]1C(=O)OC, the Kd was > 4 mM (inactive).
In the case of CC(=O)Nc1cc(S(=O)(=O)N(C)C)ccc1Cl, the Kd is reported as > 4 mM (inactive).
With CC(CC(=O)NN)C1(O)CCCCC1 (stereo not given) the Kd was > 4 mM (inactive).
In the case of COc1ccc([C@@H]2CC(=O)c3c(O)cc(O)cc3O2)cc1O, the Kd is reported as > 4 mM (inactive).
With O=C(C1CCC(C(=O)N2CCCC2)CC1)N1CCCC1 (stereo not given) the Kd was > 4 mM (inactive).
CC1=C(C(N)=O)C(c2cccs2)C(C(N)=O)=C(C)N1 was tested, and the Kd was > 4 mM (inactive).
With Nc1cc(N)nc(SCc2ccccc2)n1 the Kd was > 4 mM (inactive).
In the case of Nc1ccccc1N1CCOCC1, the Kd is reported as > 4 mM (inactive).
Cc1cc(C)c(NC(=O)CN2CCC(O)CC2)c(C)c1 was tested, and the Kd was > 4 mM (inactive).
Cn1c(O)c(C2=NC(=S)NC2=O)c2ccccc21 was tested, and the Kd was > 4 mM (inactive).
For c1ccc(C2NCCc3[nH]cnc32)cc1 (stereo not given), the Kd was > 4 mM (inactive).
For CC1=CC2C(CC1=O)C(C)=CCC2C(C)C (stereo not given), the Kd was > 4 mM (inactive).
With Cc1cc(C)n(S(=O)(=O)c2ccc(C(C)(C)C)cc2)n1 the Kd was > 4 mM (inactive).
With CN1C2C[C@H](OC(=O)[C@H](CO)c3ccccc3)C[C@H]1[C@@H](O)C2 the Kd was > 4 mM (inactive).
In the case of COc1c(-c2coc3cc4c(cc3c2=O)CC(O)C(C)(C)O4)ccc2c1C=CC(C)(C)O2 (stereo not given), the Kd is reported as > 4 mM (inactive).
For COc1cnn(-c2ccccc2)c(=O)c1N(C)C, the Kd was > 4 mM (inactive).
CC(=O)Nn1cc2c(=O)n(C)c(=O)n(C)c2c1 was tested, and the Kd was > 4 mM (inactive).
With COC(=O)C(O)c1ccccc1 (stereo not given) the Kd was > 4 mM (inactive).
In the case of NCc1ccc2c(c1)OCCCO2, the Kd is reported as > 4 mM (inactive).
With Fc1ccc(NC2=NCCS2)cc1Cl the Kd was > 4 mM (inactive).
For S=C(c1cccnc1)N1CCOCC1, the Kd was > 4 mM (inactive).
In the case of [O-][n+]1cc(O)c(CN2CCOCC2)c2ccccc21, the Kd is reported as > 4 mM (inactive).
For Cc1cccc(CO)n1, the Kd was > 4 mM (inactive).
COC(=O)C1CCN(c2ccc(Cl)nn2)CC1 was tested, and the Kd was > 4 mM (inactive).
For Cc1occc1C(=O)NCc1ccccn1, the Kd was > 4 mM (inactive).
In the case of COc1ccc(/C=C2\SC(N)=NC2=O)cc1, the Kd is reported as > 4 mM (inactive).
With S=c1oc(-c2ccncc2)nn1CCc1ccncc1 the Kd was > 4 mM (inactive).
With Nc1ncnc2nc(SCCN3CCCCC3)[nH]c12 the Kd was > 4 mM (inactive).
For Cn1cnc2c(cnn2-c2ccccc2)c1=O, the Kd was > 4 mM (inactive).
In the case of O=C(NC(=S)NN1CCOCC1)c1cccs1, the Kd is reported as > 4 mM (inactive).
COc1cc(OC)c2c(=O)c(-c3ccc4c(c3)OCO4)coc2c1 was tested, and the Kd was > 4 mM (inactive).
N#Cc1cnn(-c2ccc(Cl)cc2)c1N was tested, and the Kd was > 4 mM (inactive).
For Cc1ccccc1-n1c(N)cc(=O)[nH]c1=S, the Kd was > 4 mM (inactive).
With CCCCC(Nc1n[nH]c(=O)[nH]c1=O)C(=O)O (stereo not given) the Kd was > 4 mM (inactive).
O=C1CNC(=O)N1Cc1ccc(Br)cc1 was tested, and the Kd was > 4 mM (inactive).
In the case of NS(=O)(=O)c1ccc(NC(=O)c2ccccc2F)cc1, the Kd is reported as > 4 mM (inactive).
Cc1ccc(CN2C3=NC(=O)CN3c3ccccc32)cc1 was tested, and the Kd was > 4 mM (inactive).
With OCc1ccc2c(c1)OCCO2 the Kd was > 4 mM (inactive).
For COC(=O)c1ccc2nsnc2c1, the Kd was > 4 mM (inactive).
O=C(NCC1CCCCC1)c1ccco1 was tested, and the Kd was > 4 mM (inactive).
NS(=O)(=O)c1ccc(NC(=S)NC2CC2)cc1 was tested, and the Kd was > 4 mM (inactive).
In the case of OC1CCNC2CCCCC12 (stereo not given), the Kd is reported as > 4 mM (inactive).
With NC(=O)CSc1ccc(-c2ccccc2)nn1 the Kd was > 4 mM (inactive).
In the case of Cc1nn(CC(=O)N2CCCCC2)c(=O)c2ccccc12, the Kd is reported as > 4 mM (inactive).
